Test results from patent US20150290231A1, “COMPOSITION FOR INHIBITING CELLULAR SENESCENCE COMPRISING QUERCETIN-3-O-beta-D-GLUCURONIDE” (INDUSTRY-ACADEMIC COOPERATION FOUNDATION, YEUNGNAM …, priority 2012, published 2015).

Columns and labels:
[1] = test system: human dermal fibroblasts (HDFs); assay: Adriamycin-induced cellular senescence, SA-β-gal activity staining, HDFs; assay type: cell-based; conditions: 3 days
Method: (§1) FIG. 1 represents the effect of quercetin-3-O-β-D-glucuronide (Q3GA) on adriamycin-induced cellular senescence in human dermal fibroblasts (HDFs). Cells treated with 500 nM adriamycin for 4 h were seeded at 500 cells/well in 96 well plates. After treatment with increasing concentrations of Q3GA, cells were incubated for 3 days and cellular senescence assessed by SA-β-gal activity staining. SA-β-gal activity staining (Left) and percentages of SA-β-gal positive cells in HDFs (Right). Representative SA-β-gal staining pictures of 3 independent experiments are shown. Values are means±SDs from 3 independent experiments measured in triplicates. C, control; D, dimethyl sulfoxide; N, 5 mM N-acetylcysteine; R, 500 nM rapamycin. *p<0.05 or **p<0.01 vs DMSO.
(§2) HDFs in DMEM with 10% FBS and 1% antibiotics (penicillin 10,000 unit/mL and streptomycin […]) were seeded at 1×10^5 cells per 100 mm culture plate and incubated at 37° C. in 5% CO2 humidified air. When subcultures reached 80-90% confluence, serial passaging was performed by trypsinization. HUVECs in EGM-2 media were cultured under the same conditions. The number of population doublings (PDs) was monitored for further experiments. PD was calculated using the geometric equation: PD=log 2F/log 2I (F, final cell number; I, initial cell number). HDFs in PD<35 and HUVECs in PD<30 were used for adriamycin-induced cellular senescence. […]

[2] = test system: human umbilical vein endothelial cells (HUVECs); assay: Adriamycin-induced cellular senescence, SA-β-gal activity staining, HUVECs; assay type: cell-based; conditions: 3 days
Method: as §1, with “FIG. 2” for “FIG. 1”, “human umbilical vein endothelial cells (HUVECs).” for “human dermal fibroblasts (HDFs).”, “at 1,000” for “at 500”, “in HUVECs” for “in HDFs”
as §2, with “number).” for “number). HDFs in PD<35 and HUVECs in PD<30 were used for adriamycin-induced cellular senescence.”

p53 [3] = assay: Western blot of p53 in adriamycin-treated HDFs; assay type: cell-based, human; conditions: Q3GA 1 h prior to adriamycin 500 nM 4 h, concentration-dependent
Method: (§3) FIG. 3 represents the effect of Q3GA on the expression levels of p53, pS6K, and p21 proteins in HDFs and HUVECs treated with adriamycin. Cells were treated with the indicated concentrations of Q3GA for 1 h prior to adriamycin treatment and incubated for 4 h. Proteins from cells were extracted and separated. The expression levels of each protein were analyzed by Western blotting. Representative data of 3 independent experiments are shown. NT, not treated with adrimycin; ADR, adriamcyin; C, control; D, dimethyl sulfoxide; N, 5 mM N-acetylcysteine; R, 500 nM rapamycin.
(§4) Each cells were divided into a 60 mm culture dish to the cell number of 1×10^5, and then cultured at 37° C. in a 5% CO2 incubator. […] The amount of the protein in the solution was quantified by bicinchoninic acid (BCA) method (Pierce Biotechnology Inc., Rockford Ill., USA) by using bovine serum albumin as a standard protein.
(§5) Protein (30 μg) was separated by being electrophoresed through a 10% SDS-polyacrylamide gel. […] The membrane was washed five times with TTBS for every 5 min, and then the amounts of p53, p21 and pS6 were measured by using an enhanced chemiluminescence solution. The amount of the specific protein reacted with each antibody was measured by using a LAS-3000 imaging system (Fujifilm Corp., Stanford, Conn., USA). […]

p21 [4] = assay: Western blot of p21 in adriamycin-treated HDFs; assay type: cell-based, human; conditions: Q3GA 1 h prior to adriamycin 500 nM 4 h, concentration-dependent
Method: as §3, §4, §5

p53 [5] = assay: Western blot of p53 in adriamycin-treated HUVECs; assay type: cell-based, human; conditions: Q3GA 1 h prior to adriamycin 500 nM 4 h, concentration-dependent
Method: as §3, §4, §5

p21 [6] = assay: Western blot of p21 in adriamycin-treated HUVECs; assay type: cell-based, human; conditions: Q3GA 1 h prior to adriamycin 500 nM 4 h, concentration-dependent
Method: as §3, §4, §5

[7] = test system: human dermal fibroblasts (HDFs); assay: Intracellular ROS (DCF fluorescence, flow cytometry) in adriamycin-treated HDFs; assay type: cell-based; conditions: Q3GA 10 μg/ml, 3 days
Method: (§6) FIG. 4 represents the effect of Q3GA on intracellular ROS levels increased by adriamycin treatment in HDFs. Young cells (1.5×10^5) treated with or without adrimcyin were seeded in 60 mm culture dishes and incubated for 24 h. Following treatment of cells with 10 µg/mL of Q3GA, 0.5% DMSO, 5 mM NAC, or 500 nM rapamcyin for 3 days, cells were loaded with 250 µM H2DCFDA for 20 min. The DCF fluorescence intensity of each population of 10,000 cells was measured by flow cytometry. Representative data from three independent experiments are shown. Median fluorescence intensities were obtained and compared. Values are means±SDs from 3 independent experiments. NT, not treated with adrimycin; ADR, adriamcyin; C, control; D, dimethyl sulfoxide; N, 5 mM N-acetylcysteine; R, 500 nM rapamycin. *p<0.05 vs DMSO.
(§7) Each cells were divided into a 100 mm culture dish to the cell number of 1.5×10^5, and then cultured at 37° C. in a 5% CO2 incubator for 3 days. The cells were washed two times with DMEM medium containing antibiotics, and then adriamycin 500 nM was treated thereto for 4 hours. The cells were separated by treating trypsin-EDTA solution (2.5%), and then divided again into a 60 mm culture dish to the cell number of 1×10^5 followed by culturing at 37° C. in a 5% CO2 incubator. […] ROS was measured by using BD FACS Canto II flow cytometry (BD Biosciences, San Jose, Calif.).

[8] = test system: human umbilical vein endothelial cells (HUVECs); assay: Intracellular ROS (DCF fluorescence, flow cytometry) in adriamycin-treated HUVECs; assay type: cell-based; conditions: Q3GA 10 μg/ml, 3 days
Method: as §6, with “FIG. 5” for “FIG. 4”, “in HUVECs.” for “in HDFs.”
as §7

[9] = test system: human dermal fibroblasts (HDFs); assay: Replicative senescence, SA-β-gal activity staining, old HDFs; assay type: cell-based; conditions: old HDFs (PD>75); increasing Q3GA concentration; 3 days; concentration-dependent
Method: (§8) FIG. 6 represents the effect of Q3GA on replicative senescence of HDFs. Old cells (3×10^4/well) were seeded in 6 well plates and incubated with or without 10 µg/mL of Q3GA for 3 days. Cellular senescence was assessed by SA-β-gal activity staining. Representative pictures of 3 independent experiments are shown. Percentages of SA-β-gal positive cells were measured. Values are means±SDs from 3 independent experiments. O, old cells; D, dimethyl sulfoxide; N, 5 mM N-acetylcysteine; R, 500 nM rapamycin. *p<0.05 or **p<0.05 vs DMSO.
(§9) HDFs in DMEM with 10% FBS and 1% antibiotics (penicillin 10,000 unit/mL and streptomycin […]) were seeded at 1×10^5 cells per 100 mm culture plate and incubated at 37° C. in 5% CO2 humidified air. When subcultures reached 80-90% confluence, serial passaging was performed by trypsinization. HUVECs in EGM-2 media were cultured under the same conditions. The number of population doublings (PDs) was monitored for further experiments. PD was calculated using the geometric equation: PD=log 2F/log 2I (F, final cell number; I, initial cell number). HDFs in PD<35 and HUVECs in PD<30 were used for adriamycin-induced cellular senescence. HDFs in PD>75 and HUVECs in PD>50 were used as old cells under replicative senescence.
The effect of single component on cellular senescence was examined by SA-β-gal activity staining. […]

[10] = test system: human umbilical vein endothelial cells (HUVECs); assay: Replicative senescence, SA-β-gal activity staining, old HUVECs; assay type: cell-based; conditions: old HUVECs (PD>50); increasing Q3GA concentration; 3 days; concentration-dependent
Method: as §8, with “7” for “6”, “HUVECs. […]” for “HDFs. Old cells (3×10^4/well) were seeded in 6 well plates and incubated with or without 10 µg/mL of Q3GA for 3 days.”
as §9
The effect of single component on cellular senescence was examined by SA-β-gal activity staining. Each single component was treated in a 24-well culture plate or a 12-well culture plate for 3 days, and then the cells were washed with phosphate buffer. […]

[11] = Q3GA 10 μg/ml, adriamycin 500 nM 4 h
[12] = increasing concentrations of Q3GA

Structure (SMILES): O=C(O)[C@H]1O[C@@H](Oc2c(-c3ccc(O)c(O)c3)oc3cc(O)cc(O)c3c2=O)[C@H](O)[C@@H](O)[C@@H]1O [Q3GA, quercetin-3-O-β-D-glucuronide]
- SA-β-gal activity staining increased by adriamycin [1, 11]: reduced by Q3GA treatment
- SA-β-gal activity increased by adriamycin, concentration dependence [1, 12]: reduced as Q3GA concentration was increased
- SA-β-gal activity staining increased by adriamycin [2, 11]: reduced by Q3GA treatment
- SA-β-gal activity increased by adriamycin, concentration dependence [2, 12]: reduced as Q3GA concentration was increased
- level of p53 protein increased by adriamycin (p53 [3]): reduced
- level of p21 protein increased by adriamycin (p21 [4]): reduced
- level of p53 protein increased by adriamycin (p53 [5]): reduced
- level of p21 protein increased by adriamycin (p21 [6]): reduced
- intracellular ROS levels augmented by adriamycin (DCF fluorescence intensity) [7]: decreased intracellular ROS levels
- intracellular ROS levels augmented by adriamycin (DCF fluorescence intensity) [8]: decreased intracellular ROS levels
- SA-β-gal activity under replicative senescence [9]: decreased SA-β-gal activity
- SA-β-gal activity under replicative senescence [10]: decreased SA-β-gal activity
